This note sets out measurements from the NIST ThermoML archive (doi:10.1016/j.jct.2015.10.011).

± gives the expanded uncertainty stated by the source.

The conditions of this data set: 298.15 K; 101.33 kPa; Liquid; Vibrating tube method.

Usually mass density stands for mass per unit of volume. Turning to `CCCCCC` [hexane], the mass density is given as 655.19 ± 0.83 kg/m3.
